Results on 34 compounds are retold here after PubChem BioAssay (NCI).

Test systems include T-47D breast; M19-MEL melanoma; HOP-18 NSCLC; KM20L2 colon; DLD-1 colon; XF 498 CNS; MDA-N; SNB-78 CNS.
Common to all, as to experiment: NCI-60 cell line screen, 48 h

SMILES strings stand for the structures.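 All cell lines were grown in 96-well plates and treated with compound for 48 hours. The concentration for 50% growth inhibition is given as GI50. Definition used: TGI = concentration required for complete inhibition of growth.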

For the compound `CN1CCN(C(=O)c2ccc(NC(=O)Nc3ccc(-c4nc(N5CCOCC5)c5cccn5n4)cc3)cc2)CC1`, in the assay with T-47D breast, the GI50 is 0.0126 µM and the TGI was 0.0567 µM.

On to `CCN(CC)CCCNCc1cc(-c2ccccc2)nc2cc(Cl)ccc12`, for which, in the assay with T-47D breast, the GI50 was 1.7 µM and the TGI was 4.73 µM.

Turning to `CN(C)CCN1C(=O)c2cccc3c(/C=C/CN4C(=O)c5cccc6cccc(c56)C4=O)ccc(c23)C1=O`, in the assay with T-47D breast, the GI50 is above 100 µM and the TGI is above 100 µM.

Take `Nc1nc(Cl)nc2c1ncn2C1OC(CO)C(O)C1F` (centres undefined): in the assay on T-47D breast, the GI50 was 10.1 µM and the TGI was above 100 µM.

As for `CC(=O)OCC1OC(n2c(=O)[nH]c(=O)c3n[nH]nc32)C(OC(C)=O)C(OC(C)=O)C1OC(C)=O` (centres undefined), the TGI with M19-MEL melanoma, with HOP-18 NSCLC, with KM20L2 colon, in the assay with DLD-1 colon and in the assay on XF 498 CNS was above 100 µM in each case.

Take `Cc1cc(=O)[nH]c(N/N=C/c2ccccc2O)n1`: in the assay on T-47D breast, the GI50 was 3.74 µM and the TGI was above 100 µM.

With `Fc1ccc2c(c1)C1=C(CCC2)C(c2ccc(Cl)cc2)NC(=S)N1` (centres undefined), in the assay with T-47D breast, the GI50 was 54.4 µM and the TGI was above 100 µM.

`N#CC1=C(N)NC(N2CCOCC2)=NC12Nc1ccccc1O2` (centres undefined): in the assay with T-47D breast, the GI50 is 80.3 µM and the TGI was above 100 µM.

As to `COc1cc(OC)c2c(=O)cc(-c3ccccc3OCc3ccccc3)oc2c1OC`, in the assay on T-47D breast, the GI50 is 18.7 µM and the TGI is above 100 µM.

As for `O=C1NC(=O)C(c2cccc(Cl)c2)=C1Nc1ccc(Cl)c(C(=O)O)c1`, in the assay with T-47D breast, the GI50 is above 25 µM and the TGI is above 25 µM.

For the compound `OCCCCC#Cc1ccccc1C#Cc1cccnc1`, in the assay on T-47D breast, the GI50 was 34.7 µM and the TGI is above 100 µM.

On to `CCC[CH2][Sn]([CH2]CCC)([CH2]CCC)/[C](=C/[Si](C)(C)c1ccccc1)c1ccc2c(c1)OCO2`, for which, in the assay with MDA-N, the GI50 was 19.5 µM and the TGI is 40.3 µM. For the same compound, in the assay with T-47D breast, the GI50 is 24.6 µM and the TGI is 62 µM.

`CCc1ccc2oc(=O)ccc2c1` showed a TGI in the assay with MDA-N above 100 µM.

On to `CC12CCC(=O)C(O1)C1C(=O)c3ccc4c(ccc5ccccc54)c3C(=O)C12` (centres undefined), for which, in the assay with T-47D breast, the GI50 is 2.26 µM and the TGI was above 28.5 µM.

Take `CCCCC#Cc1c(I)n(C2OC(CO[Si](C)(C)C(C)(C)C)C3OC(C)(C)OC32)c(=O)n(C(=O)c2ccccc2)c1=O` (centres undefined): in the assay on T-47D breast, the GI50 was 4.14 µM and the TGI is 19.7 µM.

On to `CN1CCC(c2c(O)cc(O)c3c(=O)cc(-c4ccccc4Cl)oc23)C(O)C1` (centres undefined), for which the TGI was above 100 µM in the assay with HOP-18 NSCLC, above 100 µM in the assay on KM20L2 colon, above 100 µM with DLD-1 colon and 0.584 µM in the assay with XF 498 CNS. The GI50 in the assay on KM20L2 colon is 0.262 µM.

Consider `CCC(C)(O)c1cn(-c2ccc(Cl)cc2)nn1` (centres undefined), for which the TGI in the assay with M19-MEL melanoma, with HOP-18 NSCLC, in the assay with KM20L2 colon, in the assay with DLD-1 colon and with SNB-78 CNS was above 100 µM in each case.

Take `C=C(C)[C@@H]1CCc2c(O)c(O)c(=O)cc(C)c2C1`: the TGI in the assay with MDA-N was above 100 µM; in the assay with T-47D breast, 23.7 µM.

On to `CCCCCCCC(=O)[O-].CCCCCCCC(=O)[O-].N.N.N.N.[Co+3].[O-][Cl+3]([O-])([O-])[O-]`, for which the GI50 in the assay on HOP-18 NSCLC was 54.8 µM; in the assay with DLD-1 colon it was above 100 µM; in the assay on SNB-78 CNS, above 100 µM. For the same compound, the TGI in the assay with HOP-18 NSCLC, with DLD-1 colon and in the assay on SNB-78 CNS was above 100 µM in each case.

For `Nc1c(C(=O)c2cccc(C(O)CO)c2)cnn1-c1ccc(F)cc1` (centres undefined), in the assay with T-47D breast, the GI50 is above 25 µM and the TGI was above 25 µM.

`COc1cc(Cc2c(C)cc(OC)c3[nH]c4ccccc4c23)cc2c1[nH]c1ccccc12`: the GI50 in the assay on M19-MEL melanoma was 9.67 µM; with KM20L2 colon it was 5.28 µM; with DLD-1 colon, 8.99 µM; with XF 498 CNS, 6.03 µM. The TGI with M19-MEL melanoma is above 25 µM; in the assay on KM20L2 colon, 10.8 µM; with DLD-1 colon, above 25 µM; with XF 498 CNS it was above 25 µM; with SNB-78 CNS, 17 µM.

For `O=C1CS/C(=N/S(=O)(=O)c2ccc(N3N=C4c5ccccc5CC4C3c3cccs3)cc2)N1C(=O)c1ccccc1` (centres undefined), in the assay on T-47D breast, the GI50 was above 100 µM and the TGI is above 100 µM.

Turning to `CCCCCCCCCCCNC=O`, the TGI with MDA-N and in the assay with T-47D breast was above 100 µM throughout.

As to `COc1cc(Cl)c(CC(=O)c2c[nH]c3ccccc23)cc1OC`, the TGI in the assay with MDA-N and in the assay on T-47D breast was above 100 µM in each case.

Take `COc1ccc2nc(C)cc(Sc3nc4ccccc4s3)c2c1`: in the assay with T-47D breast, the GI50 was 0.881 µM and the TGI stood at 11 µM.

On to `CC(C)=Cc1cc(C)c2ccc(C)c3c2c1C(C)=C(O)C3=O`, for which, in the assay on T-47D breast, the GI50 is 16.9 µM and the TGI amounted to 52.8 µM.

In turn, `CC(C)=Cc1cc(CCC/C(C)=C/Cc2c(O)cc(C)c(C(=O)O)c2O)co1` returned a TGI in the assay on T-47D breast above 100 µM.

As for `COc1ccc(NC(=O)CC(=O)N/N=C(\C)c2cc3ccccc3oc2=O)cc1`, the TGI with M19-MEL melanoma, in the assay with HOP-18 NSCLC, in the assay on KM20L2 colon and in the assay with DLD-1 colon was above 100 µM throughout.

Take `NC(N)=NC(N)=Nc1ccc(C(=O)O)cc1`: the TGI in the assay on MDA-N and in the assay with T-47D breast was above 100 µM throughout.

On to `CC12OC(C(=O)C13CC3)C1C(=O)c3c(O)ccc(O)c3C(=O)C12` (centres undefined), for which, in the assay with T-47D breast, the GI50 was 11.6 µM and the TGI is 32 µM.

Consider `COc1ccc(C2NN=C3c4ccccc4CCC32)cc1` (centres undefined), for which, in the assay with T-47D breast, the GI50 was 6.12 µM and the TGI stood at 47.3 µM.

As to `C=C(C(=O)OC)[C@@H]1CC2OC1C(=O)C(C)CCC/C(C)=C/CC[C@@]2(C)O` (some centres undefined), in the assay on T-47D breast, the GI50 is 59.8 µM and the TGI is above 100 µM.

In the case of `CC(=O)c1c[nH]c2ccc(-c3ccnc(Nc4ccc(NC(=O)C5CCCC5)c(CN5CCOCC5)c4)n3)cc12`, the GI50 in the assay on T-47D breast is 0.0379 µM.

Take `COc1ccc2c(c1O)[C@@]13CCCC=C1[C@@H](C2)[N+](C)(C)CC3`: the TGI with MDA-N and in the assay with T-47D breast was above 100 µM each time.
